Reference: ChEMBL document CHEMBL6074678, “Selectively Antagonizing the NOD1-Mediated Inflammatory Signaling Pathway Mitigates the Gastric Inflammation Induced by Helicobacter pylori Infection” (J Med Chem, 2024)
Calls of active or inactive are those of the source. No cut-off for these calls is given here.

Columns and labels:
[1] = Clearance in C57BL/6 mouse at 2 mg/kg, iv by LC-MS/MS analysis; format: ADME, organism-based; details: in vivo
[2] = biological target: T1, Nucleotide-binding oligomerization domain-containing protein 1 (Mus musculus) (UniProt Q8BHB0); test: Antagonist activity at NOD1 in mouse BMDM cells assessed as decrease in phosphorylated JNK level at 0.1 to 1 uM incubated for 1 hr followed by C12-iE-DAP stimulation for 30 mins by Western blot analysis; format: cell-based; details: filed as antagonist, dose 0.1-1 µM, time 1.5 hrs
T1 sequence (whole entry): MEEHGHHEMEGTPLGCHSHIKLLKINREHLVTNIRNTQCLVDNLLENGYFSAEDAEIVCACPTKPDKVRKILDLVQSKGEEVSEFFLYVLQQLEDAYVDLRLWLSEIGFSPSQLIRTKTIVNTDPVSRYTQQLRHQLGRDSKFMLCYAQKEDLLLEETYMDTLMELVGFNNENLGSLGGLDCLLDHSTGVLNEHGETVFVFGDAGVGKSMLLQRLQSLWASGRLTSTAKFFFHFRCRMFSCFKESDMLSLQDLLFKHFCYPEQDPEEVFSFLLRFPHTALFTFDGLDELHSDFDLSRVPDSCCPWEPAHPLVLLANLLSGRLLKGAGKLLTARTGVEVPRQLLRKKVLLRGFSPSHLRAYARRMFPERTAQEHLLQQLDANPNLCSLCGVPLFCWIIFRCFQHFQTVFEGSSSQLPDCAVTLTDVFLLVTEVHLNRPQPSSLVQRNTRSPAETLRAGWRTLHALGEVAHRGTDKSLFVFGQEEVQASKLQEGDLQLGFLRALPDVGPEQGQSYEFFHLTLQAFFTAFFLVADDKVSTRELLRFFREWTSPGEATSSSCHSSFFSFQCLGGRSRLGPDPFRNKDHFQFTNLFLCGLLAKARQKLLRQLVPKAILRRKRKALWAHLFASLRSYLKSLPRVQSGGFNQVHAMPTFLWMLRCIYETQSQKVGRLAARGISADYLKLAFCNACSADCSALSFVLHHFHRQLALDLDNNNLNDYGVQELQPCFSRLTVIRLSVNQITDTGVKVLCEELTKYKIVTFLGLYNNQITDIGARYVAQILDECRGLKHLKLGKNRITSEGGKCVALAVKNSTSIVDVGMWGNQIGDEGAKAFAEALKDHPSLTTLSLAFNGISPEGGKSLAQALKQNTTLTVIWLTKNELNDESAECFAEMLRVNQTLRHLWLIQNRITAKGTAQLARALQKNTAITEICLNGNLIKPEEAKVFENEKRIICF

[3] = biological target: T1, Nucleotide-binding oligomerization domain-containing protein 1 (Mus musculus); test: Antagonist activity at NOD1 in mouse BMDM cells assessed as decrease in phosphorylated p65 level at 0.1 to 1 uM incubated for 1 hr followed by C12-iE-DAP stimulation for 30 mins by Western blot analysis; format: cell-based; details: filed as antagonist, dose 0.1-1 µM, time 1.5 hrs
THP-1 = test: Anti-inflammatory activity in human THP-1 cells assessed as decrease in IL-6 mRNA level at 0.1 uM pretreated for 1 hr followed by C12-iE-DAP stimulation for 2 hrs by RT-qPCR analysis relative to control; format: functional; design: scale not given: the % may be the effect or the level left; details: time 3 hrs
Mus musculus [4] = test: Anti-inflammatory activity in C57BL/6 mouse model of Helicobacter pylori-induced gastric inflammation assessed as reduction in IL-6 level in gastric tissue at 50 mg/kg, po pretreated with compound upto 24 hrs followed by infection of Helicobacter pylori measured upto 72 hrs; format: functional, organism-based; details: time <= 96.0 hrs
[5] = Cmax in C57BL/6 mouse at 2 mg/kg, iv by LC-MS/MS analysis; format: ADME, organism-based; details: in vivo
[6] = Anti-inflammatory activity in mouse BMDM cells assessed as decrease in TNF-alpha mRNA level at 0.1 uM pretreated for 1 hr followed by C12-iE-DAP stimulation for 2 hrs by RT-qPCR analysis relative to control; format: functional; design: scale not given: the % may be the effect or the level left; details: time 3 hrs
[7] = biological target: T2, Nucleotide-binding oligomerization domain-containing protein 1 (Homo sapiens) (UniProt Q9Y239); test: Thermal stabilization of NOD1 (unknown origin) transfected in HEK293 cells at 0.1 to 5 uM incubated for 1 hr heated at higher temperature by CETSA; format: cell-based; details: dose 0.1-5 µM
T2 sequence (whole entry): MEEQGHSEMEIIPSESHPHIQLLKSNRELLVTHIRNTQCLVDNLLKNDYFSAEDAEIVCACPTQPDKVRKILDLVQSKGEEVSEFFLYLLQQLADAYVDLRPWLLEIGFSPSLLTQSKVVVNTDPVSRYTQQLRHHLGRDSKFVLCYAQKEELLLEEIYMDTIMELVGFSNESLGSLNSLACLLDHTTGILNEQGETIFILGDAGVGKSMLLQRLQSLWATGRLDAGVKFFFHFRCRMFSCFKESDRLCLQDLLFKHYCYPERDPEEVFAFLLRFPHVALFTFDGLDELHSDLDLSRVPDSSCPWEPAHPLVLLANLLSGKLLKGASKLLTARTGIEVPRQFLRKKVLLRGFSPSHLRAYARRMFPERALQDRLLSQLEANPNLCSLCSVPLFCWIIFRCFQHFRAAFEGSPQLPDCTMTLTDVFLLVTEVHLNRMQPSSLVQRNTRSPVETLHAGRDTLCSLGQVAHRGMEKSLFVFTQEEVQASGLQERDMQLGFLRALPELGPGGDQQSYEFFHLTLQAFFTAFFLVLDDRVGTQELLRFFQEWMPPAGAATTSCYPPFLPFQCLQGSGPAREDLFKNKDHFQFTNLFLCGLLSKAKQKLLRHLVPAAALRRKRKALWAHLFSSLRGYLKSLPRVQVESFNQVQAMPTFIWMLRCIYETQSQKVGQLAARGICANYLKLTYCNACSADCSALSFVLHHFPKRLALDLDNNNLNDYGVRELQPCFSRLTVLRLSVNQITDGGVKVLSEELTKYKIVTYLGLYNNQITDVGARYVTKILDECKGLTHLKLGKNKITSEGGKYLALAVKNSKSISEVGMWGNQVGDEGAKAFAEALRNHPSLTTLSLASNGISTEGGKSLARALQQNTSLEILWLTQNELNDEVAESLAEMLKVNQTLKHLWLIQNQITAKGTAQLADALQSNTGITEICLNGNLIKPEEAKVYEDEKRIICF

[8] = Cmax in C57BL/6 mouse at 20 mg/kg, po by LC-MS/MS analysis; format: ADME, organism-based; details: in vivo
[9] = Half life in C57BL/6 mouse at 20 mg/kg, po by LC-MS/MS analysis; format: ADME, organism-based; details: in vivo
BMDM = test: Anti-inflammatory activity in mouse BMDM cells assessed as decrease in CXCL8 mRNA level at 1 to 5 uM pretreated for 1 hr followed by infection with Helicobacter pylori for 2 hrs by RT-qPCR analysis; format: functional, cell-based; details: dose 1-5 µM, time 3.0 hrs
[10] = Half life in C57BL/6 mouse at 2 mg/kg, iv by LC-MS/MS analysis; format: ADME, organism-based; details: in vivo
Mus musculus [11] = test: Anti-inflammatory activity in C57BL/6 mouse assessed as inhibition of serum keratinocyte chemoattractant level pretreated orally with compound for 15 mins followed by C12-iE-DAP administration measured after 2 hrs by ELISA; format: functional, organism-based; details: dose 12.5-50 mg/kg, route po, time 135.0 min

CS(=O)(=O)c1ccc2nc(Cl)n(-c3ccc(Cl)c(NS(=O)(=O)c4c(F)cccc4F)c3)c(=O)c2c1
clearance [1]: 474 mL/min/kg | inhibition [2]: Active | inhibition [3]: Active | Activity (THP-1): ~100% | Activity (Mus musculus [4]): Active | Cmax [5]: 234 ng/mL | Activity [6]: ~100% | Activity [7]: Active | Cmax [8]: 44.6 ng/mL | half-life [9]: 3.15 h | Activity (BMDM): Active | t1/2 [10]: 3.9 min | inhibition (Mus musculus [11]): Dose-dependent-effect
